# Experimental data taken from paper PMC9607081 (Membranes, 2022).
# What was measured:
# [1] = tested on: human GlyR α1 subunit P96 (loopA) substituted with Pip
# Experimental: (§1) The cDNA for the human GlyR α1 subunit was in pGEMHE (ThermoFischer Scientific, Bishops Stortford, UK). Site-directed mutagenesis was performed using QuikChange (Agilent Technologies, Milton Keynes, UK) to generate the appropriate codon. For non-canonical amino acid mutants and conventional mutants generated by nonsense suppression, the site of interest was mutated to the TAG stop codon. Receptor mRNA was then prepared by in vitro runoff transcription using the Ambion T7 mMessage mMachine kit (ThermoFischer Scientific, Bishops Stortford, UK). Noncanonical amino acids were ligated to tRNA as previously described.
# (§2) Stage V-VI oocytes of Xenopus laevis were harvested and injected with RNAs as described previously. For nonsense suppression experiments, each cell was injected with 50–100 ng each of receptor mRNA and tRNA charged with the appropriate Pro analogue ~48 h before recording. For wild type and conventional mutants, each cell received a single injection of 10–25 ng of receptor mRNA ~24 h before recording. Injection volumes were 50–100 nL per cell.
# (§3) As a negative control for suppression experiments at each site, unligated tRNA was co-injected with mRNA in the same manner as charged tRNA. […] Pro recovery (injecting tRNA charged with Pro to regenerate a wild type channel via nonsense suppression) was used alongside Pro analogues as a positive control.
# (§4) Two-electrode voltage clamping of Xenopus oocytes was performed using standard electrophysiological procedures as previously, using an OpusXpress system (Axon Instruments, Inc., Union City, CA, USA). All experiments were performed at 22–25 °C. […] The holding potential was −60 mV unless otherwise specified. […] Data were analysed using Prism (GraphPad Software Inc., San Diego, CA, USA), fitting concentration-response data to the four-parameter logistic equation. Statistical analysis was performed using ANOVA with a Dunnett’s multiple comparisons post test.
# [2] = target: human GlyR α1 subunit P230 (M1) substituted with Vah (Homo sapiens, UniProt P23415); details: Table 2, n = 4
# human GlyR α1 subunit P230 (M1) substituted with Vah, sequence (P23415 29-250 limits assumed): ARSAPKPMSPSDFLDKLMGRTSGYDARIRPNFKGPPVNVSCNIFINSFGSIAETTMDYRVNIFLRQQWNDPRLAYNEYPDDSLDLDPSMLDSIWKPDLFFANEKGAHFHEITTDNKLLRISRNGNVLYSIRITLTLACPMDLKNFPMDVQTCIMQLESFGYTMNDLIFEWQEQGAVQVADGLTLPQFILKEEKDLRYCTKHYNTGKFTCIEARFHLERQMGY
# Experimental: as §1, §2, §3, §4
# [3] = target: human GlyR α1 subunit P96 (loopA) substituted with Pro (Homo sapiens, UniProt P23415); details: Table 2, n = 5
# human GlyR α1 subunit P96 (loopA) substituted with Pro, sequence (P23415 29-457): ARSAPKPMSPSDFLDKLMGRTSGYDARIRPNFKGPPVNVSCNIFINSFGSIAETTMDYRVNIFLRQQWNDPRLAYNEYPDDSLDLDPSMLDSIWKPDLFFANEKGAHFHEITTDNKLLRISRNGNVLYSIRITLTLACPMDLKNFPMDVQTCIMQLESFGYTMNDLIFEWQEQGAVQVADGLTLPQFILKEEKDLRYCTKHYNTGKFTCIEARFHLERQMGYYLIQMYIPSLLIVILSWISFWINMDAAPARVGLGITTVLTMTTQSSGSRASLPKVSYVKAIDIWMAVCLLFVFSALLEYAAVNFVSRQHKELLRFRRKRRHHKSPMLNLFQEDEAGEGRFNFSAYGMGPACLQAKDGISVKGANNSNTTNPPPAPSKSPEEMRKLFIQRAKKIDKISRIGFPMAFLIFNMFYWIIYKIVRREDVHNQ
# Experimental: as §1, §2, §3, §4
# [4] = tested on: human GlyR α1 subunit P230 (M1) substituted with TFP
# Experimental: as §1, §2, §3, §4
# [5] = tested on: human GlyR α1 subunit P230 (M1) substituted with 2MeP; details: Table 2, P230 2MeP, n = 4
# Experimental: as §1, §2, §3, §4
# [6] = tested on: human GlyR α1 subunit P30 (α1β1L) substituted with Vah
# Experimental: as §1, §2, §3, §4
# [7] = tested on: human GlyR α1 subunit P230 (M1) substituted with 3MeP; details: Table 2, P230 3MeP, n = 4
# Experimental: as §1, §2, §3, §4
# [8] = tested on: human GlyR α1 subunit P30 (α1β1L) substituted with Pip
# Experimental: as §1, §2, §3, §4
# [9] = tested on: human GlyR α1 subunit P230 (M1) substituted with Pip
# Experimental: as §1, §2, §3, §4
# [10] = tested on: human GlyR α1 subunit P96 (loopA) substituted with 3MeP; details: Table 2, P96 3MeP, n = 4
# Experimental: as §1, §2, §3, §4
# [11] = tested on: human GlyR α1 subunit P96 (loopA) substituted with 2MeP; details: Table 2, P96 2MeP, n = 4
# Experimental: as §1, §2, §3, §4
# [12] = tested on: human GlyR α1 subunit P30 (α1β1L) substituted with CFP
# Experimental: as §1, §2, §3, §4
# [13] = tested on: human GlyR α1 subunit P96 (loopA) substituted with Vah
# Experimental: as §1, §2, §3, §4
# [14] = tested on: human GlyR α1 subunit P96 (loopA) substituted with CFP
# Experimental: as §1, §2, §3, §4
# [15] = target: human GlyR α1 subunit P230 (M1) substituted with Pro (Homo sapiens, UniProt P23415); details: Table 2, n = 4
# human GlyR α1 subunit P230 (M1) substituted with Pro, sequence (P23415 29-457): as above
# Experimental: as §1, §2, §3, §4
# [16] = target: human GlyR α1 subunit P30 (α1β1L) substituted with Pro (Homo sapiens, UniProt P23415); details: Table 2, n = 6
# human GlyR α1 subunit P30 (α1β1L) substituted with Pro, sequence (P23415 29-457): as above
# Experimental: as §1, §2, §3, §4
# [17] = tested on: human GlyR α1 subunit P230 (M1) substituted with CFP
# Experimental: as §1, §2, §3, §4
# [18] = Table 2, nonsense suppression, n = 4
# [19] = Table 2, nonsense suppression, n = 6
smiles,measurement,setting,value
"NCC(=O)O [Gly, glycine]",nH,"[1]; Table 2, n = 4",2.9 ± 0.3
same,EC50,[1]; [18],215 µM
same,pEC50,[1]; [18],3.667 ± 0.02 M
same,nH,[2],2.6 ± 0.4
same,nH,[3],2.7 ± 1.1
same,nH,"[4]; Table 2, n = 4",3.0 ± 1.4
same,EC50,[4]; [18],125 µM
same,pEC50,[4]; [18],3.904 ± 0.06 M
same,nH,[5],1.6 ± 0.5
same,EC50,[5]; nonsense suppression,177 µM
same,pEC50,[5]; nonsense suppression,3.751 ± 0.08 M
same,nH,"[6]; Table 2, n = 4",3.8 ± 0.5
same,EC50,[6]; [18],21 µM
same,pEC50,[6]; [18],4.684 ± 0.03 M
same,nH,[7],1.1 ± 0.4
same,EC50,[7]; nonsense suppression,34 µM
same,pEC50,[7]; nonsense suppression,4.471 ± 0.08 M
same,nH,"[8]; Table 2, n = 4",2.7 ± 0.7
same,EC50,[8]; [18],36 µM
same,pEC50,[8]; [18],4.439 ± 0.03 M
same,nH,"[9]; Table 2, n = 4",1.1 ± 0.2
same,EC50,[9]; [18],68 µM
same,pEC50,[9]; [18],4.166 ± 0.08 M
same,nH,[10],3.0 ± 0.2
same,EC50,[10]; nonsense suppression,514 µM
same,pEC50,[10]; nonsense suppression,3.289 ± 0.02 M
same,nH,[11],2.8 ± 0.5
same,EC50,[11]; nonsense suppression,254 µM
same,pEC50,[11]; nonsense suppression,3.596 ± 0.03 M
same,nH,"[12]; Table 2, n = 6",2.8 ± 0.7
same,EC50,[12]; [19],150 µM
same,pEC50,[12]; [19],3.825 ± 0.06 M
same,nH,"[13]; Table 2, n = 4",1.5 ± 0.3
same,EC50,[13]; [18],94 µM
same,pEC50,[13]; [18],4.029 ± 0.05 M
same,nH,"[14]; Table 2, n = 4",3.2 ± 0.7
same,EC50,[14]; [18],145 µM
same,pEC50,[14]; [18],3.840 ± 0.05 M
same,nH,[15],2.5 ± 0.9
same,nH,[16],2.9 ± 1.2
same,nH,"[17]; Table 2, n = 4",1.4 ± 0.2
same,EC50,[17]; [18],74 µM
same,pEC50,[17]; [18],4.131 ± 0.04 M
